In patent US9839681B1, “Size tunable microbial mimetics for immunotherapy of cancer” (priority 2017, dated 2017):

Tested on: Human peripheral blood mononuclear cells (PBMCs)
Test: Induced cytokine secretion by PBMCs exposed for 24 hours, ELISA
Type: cell-based
Settings: 25 μg/mL, 24 hours, 300,000 PBMCs per well
Method: FIG. 10 is bar graph showing the induced secretion of IL-6 by PBMCs exposed to PolyIC, RNA248, DNA4, DNA10, PolyIC complexed with SEQ. ID NO. 4 (CAL2), RNA248 complexed with SEQ. ID NO. 4, DNA4 complexed with SEQ. ID NO. 4, DNA10 complexed with SEQ. ID NO. 4, DNA4 and RNA248 complexed with SEQ. ID NO. 4, Pam(2)CSK4-conjugated SEQ. ID NO. 4 complexed with DNA4 and SEQ. ID NO. 4 alone. Each well contained ˜300,000 fresh PBMCs in a total volume of 100 μL of RPMI medium. Solutions of SEQ. ID NO. 4, PolyIC, DNA4, DNA10, Pam(2)CSK4-conjugated SEQ. ID NO. 4 were all pre-mixed to concentrations of 50 ug/mL (for each peptide reagent) and then added to wells in volumes of 100 uL, such that each well contained a 200 uL volume of PBMCs and reagents. Wells were run in triplicate and the mean value is indicated.
A series of in vitro experiments was conducted to characterize the immune-stimulating properties of the MM and their sub-components. Human peripheral blood mononuclear cells (PBMCs) were exposed to a MM containing SEQ. ID NO. 4 and its individual molecular sub-components for 24 hours. For reference, the PBMCs were separately exposed to PolyIC. After this time, the induced secretion of following cytokines by PBMCs was measured: interleukin-6 (IL-6), interleukin-10 (IL-10), interleukin-12 (IL-12), interleukin-15 (IL-15), tumor necrosis factor alpha (TNF-alpha), interferon-alpha (IFN-alpha), and interferon-gamma (IFN-gamma). Experiments were conducted as follows. 150 mL of blood was supplied by a human volunteer and PBMCs were isolated by Ficoll-Paque gradient centrifugation immediately after venipuncture. PBMCs were incubated for 24 hours at 37° C./5% CO2 in 96-well plates, with 300,000 PBMCs per well in a 200 μL medium containing 49% RPMI-1640/49% PBS/1% L-glutamine/1% penicillin-streptomycin and the components in Table 3 at a concentration of 25 μg/mL. All cytokines were measured in triplicate.
After 24 hours, the supernatant from each well was isolated using centrifugation at 3000 g and immediately thereafter cytokines were measured using ELISA kits from Genway Biotech (San Diego, Calif.) and Origene (Rockville, Md.). Per ELISA kit instructions, 100 μL of supernatant was used for each readout. The results are provided in FIGS. 10-16, where the mean of each measurement is provided. (In no instance did the standard deviation exceed 30%.)

For “5′-TCGTCGGTTTCGGCGCGCGCCG-3′ (DNA, all phosphorothioate, methylation of C not given here) [DNA4]”, the “cytokine secretion overall (seven cytokines measured)” value (“cytokine secretion overall” below) was “minimal cytokine secretion”, the “induced secretion of IFN-alpha” value was “somewhat immunogenic” and the “induced secretion of IL-12” value was “does not induce secretion of high amounts”. For the same substance, the “induced secretion of IL-15” value was “does not induce secretion of high amounts”.

For “5′-TTCGGCGCGCGCGCGCGCGCGCCGTT-3′ (DNA, all phosphorothioate, methylation of C not given here) [DNA10]”, the “cytokine secretion overall” value was “minimal cytokine secretion”.

For “5′-guuggugguugugugagcgu-3′ (GUUGGUGGUUGUGUGAGCGU; listed as RNA, chemistry not fully specified) [RNA248]”, the “cytokine secretion overall” value was “minimal cytokine secretion”.

“RRHRKRRLSTCMLGTYTQDFNKFHTFPQTAI (Linker Sequence + synthetic peptide corresponding to calcitonin) [CAL2]” was tested, and the “cytokine secretion overall” value was “very minimal cytokine secretion”.
